How the values were obtained:
[1] = test system: carrageenan-induced paw edema; experiment: carrageenan-induced rat paw edema, in vivo anti-inflammatory activity; details: diclofenac sodium = 1
[2] = test system: albino rats; experiment: acute toxicity studies; format: in vivo, rat; details: oral

Row | Structure (SMILES) | Effectiveness [1] | toxicity in laboratory tests [2]
1 | Oc1cccc(-c2nocc2-c2ccccc2)c1 [5d, 3-(4-Phenyl-isoxazol-3-yl)-phenol] | 0.71 | low toxicity
2 | Brc1ccc(-c2nocc2-c2ccccc2)cc1 [5h, 3-(4-Bromo-phenyl)-4-phenyl-isoxazole] | 0.02 | 
3 | Fc1ccc(-c2nocc2-c2ccccc2)cc1 [5j, 3-(4-Fluoro-phenyl)-4-phenyl-isoxazole] | 0.80 | 
4 | Clc1cccc(-c2nocc2-c2ccccc2)c1 [5i, 3-(3-Chloro-phenyl)-4-phenyl-isoxazole] | 0.55 | 
5 | COc1ccccc1-c1nocc1-c1ccccc1 [5k, 3-(2-Methoxy-phenyl)-4-phenyl-isoxazole] | 0.09 | 
6 | COc1ccc(-c2nocc2-c2ccccc2)cc1 [5m, 3-(4-Methoxy-phenyl)-4-phenyl-isoxazole] | 0.63 | 
7 | Clc1ccc(-c2nocc2-c2ccccc2)cc1 [5b, 3-(4-Chloro-phenyl)-4-phenyl-isoxazole] | 0.83 | low toxicity
8 | O=[N+]([O-])c1cccc(-c2nocc2-c2ccccc2)c1 [5e, 3-(3-Nitro-phenyl)-4-phenyl-isoxazole] | 0.16 | 
9 | Oc1ccc(-c2nocc2-c2ccccc2)cc1 [5c, 4-(4-Phenyl-isoxazol-3-yl)-phenol] | 0.81 | low toxicity
10 | COc1cccc(-c2nocc2-c2ccccc2)c1 [5l, 3-(3-Methoxy-phenyl)-4-phenyl-isoxazole] | 0.57 | 
11 | O=C(O)Cc1ccccc1Nc1c(Cl)cccc1Cl [Diclofenac sodium, reference compound] | 1 | 
12 | O=[N+]([O-])c1ccc(-c2nocc2-c2ccccc2)cc1 [5f, 3-(4-Nitro-phenyl)-4-phenyl-isoxazole] | 0.66 | 
13 | Brc1cccc(-c2nocc2-c2ccccc2)c1 [5g, 3-(3-Bromo-phenyl)-4-phenyl-isoxazole] | 0.22 | 

— paper PMC11617876 (Heliyon, 2024)
